The record followed here is ChEMBL document CHEMBL1133144, “Synthesis and structure-activity relationships of a new class of 1-oxacephem-based human chymase inhibitors” (Bioorg Med Chem Lett, 2000).

Structures are written as SMILES. pIC50: −log10 of the molar value.

One assay concerns the target T1, Chymase (Homo sapiens, UniProt P23946).
T1 sequence (P23946 whole entry): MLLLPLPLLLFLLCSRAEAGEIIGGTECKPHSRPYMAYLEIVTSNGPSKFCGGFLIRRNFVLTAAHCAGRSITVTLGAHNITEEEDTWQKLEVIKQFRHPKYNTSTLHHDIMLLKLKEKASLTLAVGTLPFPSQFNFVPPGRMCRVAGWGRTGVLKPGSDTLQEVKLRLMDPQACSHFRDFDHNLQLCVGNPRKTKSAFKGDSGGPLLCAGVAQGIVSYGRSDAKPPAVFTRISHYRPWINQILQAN
Nature of the assay: Inhibitory activity against human serine protease chymase.

The next assay addresses Prothrombin (Homo sapiens, UniProt P00734). Nature of the assay: The compound was evaluated for the inhibitory activity against thrombin.
Another assay deals with T2, Neutrophil elastase (Homo sapiens, UniProt P08246).
T2 sequence (P08246 whole entry): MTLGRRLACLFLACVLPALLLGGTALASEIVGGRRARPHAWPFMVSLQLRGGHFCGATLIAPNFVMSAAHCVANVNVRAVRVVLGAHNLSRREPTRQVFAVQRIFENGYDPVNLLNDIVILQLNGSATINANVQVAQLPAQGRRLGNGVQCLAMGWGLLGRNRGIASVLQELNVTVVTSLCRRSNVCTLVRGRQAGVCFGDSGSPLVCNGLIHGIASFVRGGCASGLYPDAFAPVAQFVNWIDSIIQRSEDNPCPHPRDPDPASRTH
Nature of the assay: The compound was evaluated for the inhibitory activity against human neutrophil elastase.

The target in the next assay is Plasminogen (Homo sapiens, UniProt P00747). Nature of the assay: The compound was evaluated for the inhibitory activity against plasmin.
The target of a further assay is T3, Cathepsin G (Homo sapiens, UniProt P08311).
T3 sequence (P08311 whole entry): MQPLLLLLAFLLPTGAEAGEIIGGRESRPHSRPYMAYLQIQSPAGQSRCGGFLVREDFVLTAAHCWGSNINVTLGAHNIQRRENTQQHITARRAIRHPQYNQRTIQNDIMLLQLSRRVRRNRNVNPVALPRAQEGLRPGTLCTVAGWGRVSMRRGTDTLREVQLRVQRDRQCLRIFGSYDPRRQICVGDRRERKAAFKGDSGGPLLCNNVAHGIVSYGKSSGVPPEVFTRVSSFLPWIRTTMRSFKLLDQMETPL
Nature of the assay: The compound was evaluated for the inhibitory activity against cathepsin G.

The target in a further assay is T4, Serine protease 1 (Bos taurus, UniProt P00760).
T4 sequence (P00760 whole entry): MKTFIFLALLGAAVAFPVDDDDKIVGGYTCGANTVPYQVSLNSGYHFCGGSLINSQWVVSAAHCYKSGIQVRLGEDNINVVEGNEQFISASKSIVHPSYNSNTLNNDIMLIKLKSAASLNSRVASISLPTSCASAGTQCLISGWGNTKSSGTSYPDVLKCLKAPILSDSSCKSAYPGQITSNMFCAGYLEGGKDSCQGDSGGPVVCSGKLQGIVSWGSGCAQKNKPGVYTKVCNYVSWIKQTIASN
Nature of the assay: The compound was evaluated for the inhibitory activity against trypsin.

Sequence of Plasminogen (P00747 97-580 limits assumed): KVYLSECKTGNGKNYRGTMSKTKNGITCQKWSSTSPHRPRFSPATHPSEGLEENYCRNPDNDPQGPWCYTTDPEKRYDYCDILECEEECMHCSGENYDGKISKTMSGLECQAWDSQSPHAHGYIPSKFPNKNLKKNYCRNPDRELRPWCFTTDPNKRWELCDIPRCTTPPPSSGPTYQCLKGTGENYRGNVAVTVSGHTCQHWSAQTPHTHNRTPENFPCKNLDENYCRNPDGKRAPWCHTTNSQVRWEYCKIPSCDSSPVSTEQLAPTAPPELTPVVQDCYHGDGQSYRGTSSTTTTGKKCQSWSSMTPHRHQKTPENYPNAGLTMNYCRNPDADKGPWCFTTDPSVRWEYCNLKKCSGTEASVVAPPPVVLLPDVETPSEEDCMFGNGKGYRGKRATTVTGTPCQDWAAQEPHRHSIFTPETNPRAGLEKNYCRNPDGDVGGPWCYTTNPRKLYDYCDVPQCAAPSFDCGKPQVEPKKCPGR
Sequence of Plasminogen (P00747 581-810 limits assumed): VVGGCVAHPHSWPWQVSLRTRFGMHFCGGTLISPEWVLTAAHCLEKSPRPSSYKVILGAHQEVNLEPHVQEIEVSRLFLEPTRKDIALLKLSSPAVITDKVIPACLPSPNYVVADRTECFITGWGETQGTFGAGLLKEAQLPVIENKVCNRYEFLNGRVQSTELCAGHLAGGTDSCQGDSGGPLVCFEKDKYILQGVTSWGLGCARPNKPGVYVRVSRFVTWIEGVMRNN

In turn, `COc1ccc(C(=O)N[C@]2(OC)C(=O)N3C(C(=O)OC(c4ccccc4)c4ccccc4)=C(CSc4nnnn4C)CO[C@@H]32)cc1` showed a pIC50 at Chymase below 5.00.

With `COc1ccccc1C(=O)N[C@]1(OC)C(=O)N2C(C(=O)OCc3cccc(C)c3)=C(CSc3nncn3CC(=O)O)CO[C@@H]21`, the pIC50 against Prothrombin is 6.37; on Neutrophil elastase, below 5.00; on Plasminogen it was below 5.00; at Cathepsin G it was 6.64; on Serine protease 1, 6.36.

In the case of `CO[C@@]1(NC(=O)Cc2ccc(O)cc2)C(=O)N2C(C(=O)N3CCCC3)=C(CSc3nnnn3C)CO[C@@H]21`, the pIC50 at Chymase is below 5.00.

Consider `CO[C@@]1(NC(=O)Cc2ccc(Br)cc2)C(=O)N2C(C(=O)OC(c3ccccc3)c3ccccc3)=C(CSc3nnnn3C)CO[C@@H]21`, for which, on Chymase, the pIC50 is 5.17.

In the case of `CO[C@@]1(NC(=O)c2ccccc2Cl)C(=O)N2C(C(=O)OC(c3ccccc3)c3ccccc3)=C(CSc3nnnn3C)CO[C@@H]21`, the pIC50 against Chymase is 5.77.

In turn, `CO[C@@]1(NC(=O)Cc2ccc(-c3ccccc3)cc2)C(=O)N2C(C(=O)OC(c3ccccc3)c3ccccc3)=C(CSc3nnnn3C)CO[C@@H]21` showed a pIC50 on Chymase below 5.00.

`CO[C@@]1(NC(=O)Cc2ccc(O)cc2)C(=O)N2C(C(=O)OCc3cccc(C)c3)=C(C)CO[C@@H]21` showed a pIC50 against Chymase below 5.00.

In the case of `CO[C@@]1(NC(=O)Cc2ccc(O)cc2)C(=O)N2C(C(=O)OCc3cccc(C)c3)=C(CSc3nncn3C)CO[C@@H]21`, on Chymase, the pIC50 was 5.40.

Regarding `CO[C@@]1(NC(=O)Cc2ccc(O)cc2)C(=O)N2C(C(=O)OCc3cccc(C)c3)=C(CCl)CO[C@@H]21`, the pIC50 against Chymase is 6.82.

For orientation: pIC50 means the IC50 on a negative log10 scale, so that one unit is a factor of ten. The low end stands for a large IC50, the high end for a small IC50.
